In ChEMBL document CHEMBL5390253, “Discovery of Selective and Potent Macrocyclic CDK9 Inhibitors for the Treatment of Osimertinib-Resistant Non-Small-Cell Lung Cancer” (J Med Chem, 2023):
pIC50: −log10 of the molar value. Active and inactive are the calls of the source. No cut-off for these calls is given here.

Legend:
[1] = Downregulation of Mcl-1 level in human Osimertinib-resistant NCI-H1975 cell at 500 nM measured after 8 hrs by Western blotting analysis relative to control; format: functional
[2] = target: T1, Cyclin-dependent kinase 5/CDK5 activator 1 (Homo sapiens) (UniProt Q00535+Q15078); experiment: Inhibition of CDK5/p25NCK (unknown origin) at 200 nM preincubated for 10 mins followed by substrate addition and measured after 60 mins in presence of ATP by ADP-Glo reagent based assay relative to control; format: protein-complex assay; conditions: time 70.0 min
T1 sequence (Q00535 whole entry): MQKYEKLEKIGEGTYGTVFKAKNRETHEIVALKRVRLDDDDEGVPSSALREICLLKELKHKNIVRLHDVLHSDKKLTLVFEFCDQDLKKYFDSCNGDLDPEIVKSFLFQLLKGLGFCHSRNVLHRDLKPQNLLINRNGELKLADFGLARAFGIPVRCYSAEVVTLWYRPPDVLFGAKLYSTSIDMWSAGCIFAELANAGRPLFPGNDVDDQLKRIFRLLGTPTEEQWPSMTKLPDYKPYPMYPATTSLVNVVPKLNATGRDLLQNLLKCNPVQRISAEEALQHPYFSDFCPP
T1 sequence (Q15078 99-307 partner limits assumed): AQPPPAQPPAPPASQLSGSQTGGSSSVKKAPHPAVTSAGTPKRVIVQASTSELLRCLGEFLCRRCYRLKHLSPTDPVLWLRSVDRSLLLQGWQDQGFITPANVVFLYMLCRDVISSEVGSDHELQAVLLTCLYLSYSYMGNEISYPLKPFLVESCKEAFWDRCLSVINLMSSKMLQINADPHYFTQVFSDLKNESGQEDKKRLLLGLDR

[3] = Toxicity in ICR mouse assessed as abnormalities in spleen at 1000 mg/kg, po measured after 9 days by H and E staining based analysis; format: organism-based; conditions: in vivo, 216 h, time 9 day
NCI-H1975 [4] = experiment: Downregulation of cleaved caspase-3 level in human Osimertinib-resistant NCI-H1975 cell measured after 16 hrs by Western blot analysis; format: functional, cell-based; conditions: dose 125-2000 nM
[5] = Toxicity in ICR mouse assessed as abnormalities in kidney at 1000 mg/kg, po measured after 9 days by H and E staining based analysis; format: organism-based; conditions: in vivo, 216 h, time 9 day
[6] = target: T1, Cyclin-dependent kinase 5/CDK5 activator 1 (Homo sapiens); experiment: Inhibition of CDK5/p35NCK (unknown origin) at 200 nM preincubated for 10 mins followed by substrate addition and measured after 60 mins in presence of ATP by ADP-Glo reagent based assay relative to control; format: protein-complex assay; conditions: time 70.0 min
[7] = Oral bioavailability in Sprague-Dawley rat at 20 mg/kg measured upto 24 hrs; format: ADME, organism-based; conditions: in vivo
[8] = Downregulation of Mcl-1 in human NCI-H1975 cells at 500 nM relative to control; format: functional
[9] = Antiproliferative activity against 3D-cultured human Osimertinib-resistant NCI-H1975 cell incubated for 72 hrs by MTT assay; format: functional, cell-based; conditions: NCI-H1975, 72 h
[10] = target: CDK18/Cyclin Y (Homo sapiens) (UniProt Q07002+Q8ND76); experiment: Inhibition of CDK18/cyclin Y (unknown origin) at 200 nM preincubated for 10 mins followed by substrate addition and measured after 60 mins in presence of ATP by ADP-Glo reagent based assay relative to control; format: protein-complex assay; conditions: time 70.0 min
[11] = target: CDK4/Cyclin D3 (Homo sapiens) (UniProt P11802+P30281); experiment: Inhibition of CDK4/Cyclin D3 (unknown origin) at 200 nM preincubated for 10 mins followed by substrate addition and measured after 60 mins in presence of ATP by ADP-Glo reagent based assay relative to control; format: protein-complex assay; conditions: time 70.0 min
[12] = Toxicity in ICR mouse assessed as morphological changes in kidney at 1000 mg/kg, po measured after 9 days by H and E staining based analysis; format: organism-based; conditions: in vivo, 216 h, time 9 day
[13] = target: CDK3/Cyclin E (Homo sapiens) (UniProt P24864+Q00526); experiment: Inhibition of CDK3/Cyclin E1 (unknown origin) at 200 nM preincubated for 10 mins followed by substrate addition and measured after 60 mins in presence of ATP by ADP-Glo reagent based assay relative to control; format: protein-complex assay; conditions: time 70.0 min
Sequence of CDK3/Cyclin E (Homo sapiens) (P24864 whole entry, looked up): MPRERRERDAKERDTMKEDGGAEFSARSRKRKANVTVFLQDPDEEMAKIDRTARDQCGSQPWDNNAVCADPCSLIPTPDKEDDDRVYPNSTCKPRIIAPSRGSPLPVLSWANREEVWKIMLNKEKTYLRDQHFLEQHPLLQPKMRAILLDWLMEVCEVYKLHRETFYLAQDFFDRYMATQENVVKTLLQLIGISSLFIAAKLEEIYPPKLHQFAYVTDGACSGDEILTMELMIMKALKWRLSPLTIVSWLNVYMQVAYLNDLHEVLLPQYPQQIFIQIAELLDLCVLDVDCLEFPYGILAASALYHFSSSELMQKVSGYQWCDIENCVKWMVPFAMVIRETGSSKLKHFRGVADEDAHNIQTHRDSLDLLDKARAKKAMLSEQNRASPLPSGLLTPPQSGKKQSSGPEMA
Sequence of CDK3/Cyclin E (Homo sapiens) (Q00526 whole entry, looked up): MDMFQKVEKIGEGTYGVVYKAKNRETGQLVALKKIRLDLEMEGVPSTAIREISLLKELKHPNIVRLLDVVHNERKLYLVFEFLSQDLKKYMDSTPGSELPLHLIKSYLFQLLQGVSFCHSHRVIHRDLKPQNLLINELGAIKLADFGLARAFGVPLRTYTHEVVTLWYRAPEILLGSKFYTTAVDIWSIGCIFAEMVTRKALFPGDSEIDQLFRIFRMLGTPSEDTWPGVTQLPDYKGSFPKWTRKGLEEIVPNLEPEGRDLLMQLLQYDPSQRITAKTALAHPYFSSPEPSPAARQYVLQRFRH

[14] = Toxicity in ICR mouse assessed as abnormalities in heart at 1000 mg/kg, po measured after 9 days by H and E staining based analysis; format: organism-based; conditions: in vivo, 216 h, time 9 day
[15] = Induction of apoptosis in human Osimertinib-resistant NCI-H1975 cell assessed as necrotic cells at 2000 nM measured after 16 hrs by Annexin V-FITC and PI staining based analysis (reference value: 0.50%); format: functional
[16] = target: CDK7/Cyclin H/MNAT1 (Homo sapiens) (UniProt P51946+P50613+P51948); experiment: Inhibition of CDK7/Cyclin H/MAT1 (unknown origin) at 200 nM preincubated for 10 mins followed by substrate addition and measured after 60 mins in presence of ATP by ADP-Glo reagent based assay relative to control; format: protein-complex assay; conditions: time 70.0 min
[17] = Metabolic stability in human liver microsomes assessed as half life at 10 uM measured at 5 to 60 mins by LC-MS/MS analysis; format: ADME, Microsome; conditions: time 5-60 min
NCI-H1299 = experiment: Antiproliferative activity against human NCI-H1299 cells incubated for 72 hrs by MTT assay; format: functional, cell-based; conditions: NCI-H1299, 72 h
[18] = target: Homeodomain-interacting protein kinase 1 (Homo sapiens) (UniProt Q86Z02); experiment: Inhibition of HIPK1 (unknown origin) at 500 nM preincubated for 10 mins followed by substrate addition and measured after 60 mins in presence of ATP by ADP-Glo reagent based assay relative to control; conditions: time 70.0 min
Sequence of Homeodomain-interacting protein kinase 1 (Homo sapiens) (Q86Z02 whole entry, looked up): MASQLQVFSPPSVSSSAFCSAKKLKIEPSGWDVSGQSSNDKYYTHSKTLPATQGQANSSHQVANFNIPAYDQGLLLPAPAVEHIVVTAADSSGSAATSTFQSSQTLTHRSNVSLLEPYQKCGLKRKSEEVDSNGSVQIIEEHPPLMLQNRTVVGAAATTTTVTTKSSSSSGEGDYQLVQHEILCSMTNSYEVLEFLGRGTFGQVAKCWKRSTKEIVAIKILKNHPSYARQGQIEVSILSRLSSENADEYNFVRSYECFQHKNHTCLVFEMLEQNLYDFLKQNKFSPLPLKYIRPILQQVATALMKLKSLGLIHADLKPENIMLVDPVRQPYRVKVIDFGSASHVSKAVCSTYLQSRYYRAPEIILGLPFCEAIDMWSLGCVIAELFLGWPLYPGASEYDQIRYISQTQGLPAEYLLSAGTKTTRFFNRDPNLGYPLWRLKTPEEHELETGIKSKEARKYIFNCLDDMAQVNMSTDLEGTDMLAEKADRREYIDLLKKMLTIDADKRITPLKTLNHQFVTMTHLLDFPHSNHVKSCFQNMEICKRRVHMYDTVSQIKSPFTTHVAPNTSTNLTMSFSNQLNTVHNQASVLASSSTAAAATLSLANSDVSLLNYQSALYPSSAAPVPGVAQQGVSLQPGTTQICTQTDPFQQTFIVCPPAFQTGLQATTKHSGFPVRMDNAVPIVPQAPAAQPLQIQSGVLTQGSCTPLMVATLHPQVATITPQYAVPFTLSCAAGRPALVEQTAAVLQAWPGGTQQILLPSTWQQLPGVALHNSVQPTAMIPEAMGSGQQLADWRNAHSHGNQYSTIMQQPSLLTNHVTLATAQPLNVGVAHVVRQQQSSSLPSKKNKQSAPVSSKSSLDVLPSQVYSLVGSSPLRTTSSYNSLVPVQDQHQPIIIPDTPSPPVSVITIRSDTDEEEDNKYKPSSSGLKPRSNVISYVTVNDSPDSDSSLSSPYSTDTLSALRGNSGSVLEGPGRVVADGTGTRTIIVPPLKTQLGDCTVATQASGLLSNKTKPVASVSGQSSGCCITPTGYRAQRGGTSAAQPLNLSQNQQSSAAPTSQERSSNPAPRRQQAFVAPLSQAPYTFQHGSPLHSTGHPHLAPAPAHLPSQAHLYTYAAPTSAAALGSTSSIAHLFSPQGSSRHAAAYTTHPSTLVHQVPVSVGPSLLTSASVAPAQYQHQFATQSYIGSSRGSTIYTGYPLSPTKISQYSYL

[19] = target: Dual specificity protein kinase CLK2 (Homo sapiens) (UniProt P49760); experiment: Inhibition of CLK2 (unknown origin) at 100 nM preincubated for 10 mins followed by substrate addition and measured after 60 mins in presence of ATP by ADP-Glo reagent based assay relative to control; conditions: time 70.0 min
Sequence of Dual specificity protein kinase CLK2 (Homo sapiens) (P49760 whole entry, looked up): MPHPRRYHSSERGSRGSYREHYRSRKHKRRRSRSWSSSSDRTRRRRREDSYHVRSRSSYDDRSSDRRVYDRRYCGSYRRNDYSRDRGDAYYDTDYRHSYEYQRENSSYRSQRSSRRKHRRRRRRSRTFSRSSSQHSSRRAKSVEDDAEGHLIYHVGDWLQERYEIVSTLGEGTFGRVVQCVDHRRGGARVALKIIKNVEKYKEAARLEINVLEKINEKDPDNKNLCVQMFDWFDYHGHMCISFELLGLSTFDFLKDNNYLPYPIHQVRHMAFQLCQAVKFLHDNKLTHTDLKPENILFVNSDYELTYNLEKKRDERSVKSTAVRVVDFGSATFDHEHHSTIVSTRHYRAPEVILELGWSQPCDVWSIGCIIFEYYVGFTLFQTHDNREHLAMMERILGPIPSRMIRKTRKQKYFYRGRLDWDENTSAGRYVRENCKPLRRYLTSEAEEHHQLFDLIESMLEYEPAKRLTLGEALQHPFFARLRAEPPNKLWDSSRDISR

NCI-H1975 [20] = experiment: Downregulation of Mcl-1 level in human Osimertinib-resistant NCI-H1975 cell at 500 nM measured after 8 hrs by Western blotting analysis; format: functional, cell-based
[21] = target: Glycogen synthase kinase-3 beta (Homo sapiens) (UniProt P49841); experiment: Inhibition of GSK3beta (unknown origin) at 500 nM preincubated for 10 mins followed by substrate addition and measured after 60 mins in presence of ATP by ADP-Glo reagent based assay relative to control; conditions: time 70.0 min
Sequence of Glycogen synthase kinase-3 beta (Homo sapiens) (P49841 whole entry, looked up): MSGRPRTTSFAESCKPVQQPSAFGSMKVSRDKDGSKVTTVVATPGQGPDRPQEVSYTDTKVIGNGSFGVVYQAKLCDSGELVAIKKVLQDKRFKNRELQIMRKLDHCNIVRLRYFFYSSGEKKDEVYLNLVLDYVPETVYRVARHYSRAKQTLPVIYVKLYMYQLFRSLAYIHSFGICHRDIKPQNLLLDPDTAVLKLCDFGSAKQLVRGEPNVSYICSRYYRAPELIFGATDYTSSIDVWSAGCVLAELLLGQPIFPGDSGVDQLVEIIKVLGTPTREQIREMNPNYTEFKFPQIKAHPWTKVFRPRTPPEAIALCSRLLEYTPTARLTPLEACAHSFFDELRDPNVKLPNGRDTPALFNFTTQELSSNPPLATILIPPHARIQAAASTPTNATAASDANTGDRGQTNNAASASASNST

CDK2/Cyclin A2 = CDK2/Cyclin A2 (Homo sapiens, UniProt P24941); experiment: Inhibition of CDK2/Cyclin A2 (unknown origin) preincubated for 10 mins followed by substrate addition and measured after 60 mins in presence of ATP by ADP-Glo reagent based assay; format: protein-complex assay
NCI-H1975 [22] = experiment: Downregulation of Bcl-2 level in human Osimertinib-resistant NCI-H1975 cell at 125 nM measured after 16 hrs in presence of osimertinib by Western blot analysis; format: functional, cell-based
NCI-H1975 [23] = experiment: Downregulation of Mcl-1 level in human Osimertinib-resistant NCI-H1975 cell at 500 nM measured after 2 hrs by Western blotting analysis; format: functional, cell-based
PC-9 = experiment: Antiproliferative activity against human PC-9 cells incubated for 72 hrs by MTT assay; format: functional, cell-based; conditions: PC-9, 72 h
[24] = Toxicity in ICR mouse assessed as morphological changes in liver at 1000 mg/kg, po measured after 9 days by H and E staining based analysis; format: organism-based; conditions: in vivo, 216 h, time 9 day
[25] = target: Dual specificity tyrosine-phosphorylation-regulated kinase 1A (Homo sapiens) (UniProt Q13627); experiment: Inhibition of DYRK1A (unknown origin) at 100 nM preincubated for 10 mins followed by substrate addition and measured after 60 mins in presence of ATP by ADP-Glo reagent based assay relative to control; conditions: time 70.0 min
[26] = Toxicity in ICR mouse assessed as effect on body weight loss at 1000 mg/kg, po measured for 8 to 9 days; format: organism-based; conditions: in vivo, time 8-9 day
[27] = Induction of apoptosis in human Osimertinib-resistant NCI-H1975 cell assessed as late apoptotic cells at 2000 nM measured after 16 hrs by Annexin V-FITC and PI staining based analysis (reference value: 2.84%); format: functional
[28] = AUC in Sprague-Dawley rat at 2 mg/kg, iv measured upto 24 hrs; format: ADME, organism-based; set-up: dose 2 mg/kg, time < 24 hrs, route iv; conditions: in vivo
[29] = target: Cyclin-dependent kinase 2/cyclin E1 (Homo sapiens) (UniProt P24864+P24941); experiment: Inhibition of CDK2/cyclin E1 (unknown origin) at 500 nM preincubated for 10 mins followed by substrate addition and measured after 60 mins in presence of ATP by ADP-Glo reagent based assay relative to control; format: protein-complex assay; conditions: time 70.0 min

- inhibition [2]: 38.9%
- inhibition [6]: 16.3%
- bioavailability [7]: 8%
- inhibition [10]: 12%
- inhibition [11]: 50.1%
- inhibition [13]: 29.6%
- inhibition [16]: 12.8%
- half-life at 10 µM [17]: 10.7 min
- pIC50 (NCI-H1299): 7.07
- inhibition [18]: 96%
- inhibition [19]: 32.8%
- inhibition [21]: 93.9%
- pIC50 (CDK2/Cyclin A2): 6.68
- pIC50 (PC-9): 6.90
- inhibition [25]: 14.3%
- AUC at 24 h [28]: 1080 ng·h/mL
- inhibition [29]: 76.1%
SMILES: O=C(NCCN1CCOCC1)c1ccc2cc1OCCCCCCOc1cc(ccc1F)-c1nc(ncc1F)N2
- Activity [1]: 90%
- Activity [3]: Non-Toxic
- Activity (NCI-H1975 [4]): Dose-Dependent Effect
- Activity [5]: Non-Toxic
- Activity [8]: 75.6%
- pIC50 [9]: > 7.30
- Activity [12]: Non-Toxic
- Activity [14]: Non-Toxic
- Activity [15]: 1.97%
- Activity (NCI-H1975 [20]): Active
- Activity (NCI-H1975 [22]): Active
- Activity (NCI-H1975 [23]): Active
- Activity [24]: Non-Toxic
- Activity [26]: Non-Toxic
- Activity [27]: 13.7%
